# Test results from patent US20250051321A1, “TRICYCLIC DERIVATIVE AND PREPARATION METHOD THEREFOR AND APPLICATION THEREOF” (SHANGHAI JEMINCARE PHARMACEUTICAL CO., LTD., priority 2021, published 2025).
# Where two headings read alike, the source gives them in different places.
# Columns and labels:
# ATX = ATX (Homo sapiens (Human), UniProt Q13822); assay: ATX enzyme inhibition assay (Amplex UltraRed/choline oxidase/HRP, 16:0 Lyso PC substrate); assay type: biochemical; settings: assay buffer pH 8.5; read-out: IC50 (nM) pH 8.5
# Method: All compounds were prepared as a 10 mM DMSO stock solution.
# Solutions at pH 8.5 and pH 7.5 were prepared respectively with the following formulations:
# All compounds, including the positive control compound, were diluted 5-fold from 10 mM to 2 mM with DMSO in the first step. The mixture was then diluted to 100 μM with 1× assay buffer.
# 3. Separate Detection of Compounds with 1× Assay Buffer at Two pH Values:
# a) 5 μL of 10× compound diluent was added to a 384-well plate (Greiner 781209) using a motorized pipette (see the “experimental preparation” step). 5 μL of 1× assay buffer containing 5% DMSO was added to both negative and positive control wells. The plate was centrifuged at 300 rpm for 1 minute at room temperature.
# b) 2× ATX ([…]) was prepared with 1× assay buffer, and 25 μL of 2× ATX was added to the plate using a motorized pipette. 25 μL of 1× assay buffer was added to the negative control wells and 25 μL of 2× ATX was added to the positive control wells. The plate was centrifuged at 300 rpm for 1 minute at room temperature.
# The plate was incubated at room temperature for 10 minutes.
# c) 2.5× working solution containing Amplex UltraRed reagent (125 μM), HRP (2.5 U/mL), choline oxidase (1.25 U/mL), and 16:0 Lyso PC (75 μM) was prepared with 1× assay buffer. 20 μL of 2.5× working solution was added to all reaction wells using a motorized pipette. The plate was centrifuged at 300 rpm for 1 minute at room temperature.
# d) The plate was detected by SpectraMax with the following procedures: fluorescence mode; excitation at 550 nm; emission at 590 nm; kinetics; read once every 2 minutes; read continuously for 60 minutes.
# The calculation formula of % inhibition (i.e., % inhibition rate) was as follows: […]
# V0: X-axis is taken as 0 to 30 minutes, Y-axis is taken as fluorescence readings, and the slope corresponding to the straight line fitted by the software GraphPad Prism 8 is the initial response rate.
# V0max: Average V0 of the positive control wells in the plate.
# V0min: Average V0 of the negative control wells in the plate.
# The IC50 of the compounds was calculated from a nonlinear regression line (dose-initial response rate) fitted by % inhibition and log value of compound concentration using the software GrahPad Prism 8.
# [1] = test system: plasma LPA 18:1 and LPA 18:2; assay: Human plasma ex vivo assay (LPA 18:1 / 18:2 by LC-MS/MS); assay type: biochemical; settings: 37° C., 2 hours
# Method: The collected plasma was centrifuged at 4000 rpm for 15 minutes at 4° C. The supernatant was aliquoted into a 96-well plate (25 μL per well), sealed, and frozen at −80° C. for further use.
# LPA 17:0 powder was dissolved in a mixed solution of water: isopropanol: formic acid (1:1:1) to a final concentration of […]. The mixture was aliquoted and frozen at −20° C.
# 1 volume of formic acid was added to 1000× methanol, mixed well, and stored at 4° C. a) The 96-well plate containing frozen plasma was removed from the −80° C. freezer and thawed on ice at room temperature. b) 6 μL of 50× LPA 17:0 (internal standard) and 264 μL of 0.1% FA were added to a clean well of the 96-well plate; the final concentration of LPA 17:0 (internal standard) was 50 nM. c) 6× compound was 1:3 serially diluted to a total of 8 concentrations, and 5 μL of the compound per well was added to the 96-well plate containing plasma. The maximum final concentration of the compound was 10 μM, and the final concentration of DMSO was 0.1%. The plate was centrifuged at 300 rpm for 30 seconds. The DMSO control sample reacted for 0 hours was used as the minimum value (Min), and the DMSO control sample reacted for 2 hours was used as the maximum value (Max). […]
# d) The DMSO sample reacted for 0 hours was rapidly transferred to 0.1% FA solution containing the internal standard in step b) to terminate the reaction and precipitate plasma proteins. e) The 96-well plate containing plasma and compounds was rapidly incubated in a 37° C. incubator for 2 hours. After the incubation, 6 μL of 10× LPA 17:0 and 264 μL of 0.1% FA were added to each well to terminate the reaction and precipitate plasma proteins. […]
# f) All the samples were mixed well with a pipette, and centrifuged at 4000 rpm for 10 minutes at 4° C. 150 μL of the supernatant was added to a 96-well U-bottom plate (Thermo 267245), sealed with silica gel, and then loaded. The contents of LPA 18:1 and LPA 18:2 in the samples were detected by LC-MS/MS system.
# LPA 18:1(or 18:2) relative content=LPA 18:1(or 18:2) peak area/LPA 17:0 peak area Percentage reduction (%) in plasma LPA18:1(or 18:2)=(Max−X)/(Max−Min)*100 Max: LPA 18:1 (or 18:2) relative content of the DMSO sample reacted for 2 hours Min: LPA 18:1 (or 18:2) relative content of the DMSO sample reacted for 0 hours X: LPA 18:1 (or 18:2) relative content of the sample after compound treatment for 2 hours The IC50 of the compounds was calculated by fitting a nonlinear regression through percentage reduction in plasma LPA 18:1 (or 18:2) and log value of compound concentration using the software GraphPad Prism 8.
# Y=Bottom+(Top−Bottom)/(1+10^((Log IC50−X)*Hill Slope))
# [2] = LPA 18:1, read-out: Human plasma ex vivo assay IC50 (18:1 LPA)
# [3] = LPA 18:2, read-out: Human plasma ex vivo assay IC50 (18:2 LPA)
Structure (SMILES),IC50 (ATX),"IC50 [1, 2]","IC50 [1, 3]"
"CN(c1nc(-c2ccc(F)cc2)c(C#N)s1)c1c2c(nc3c(F)cc(N4CC5(CN(C(=O)N6CCCC6)C5)C4)cc13)[C@@H](O)CC2 (single isomer, unassigned) [Example E17-a]",22.4 nM,,
CN(c1nc(-c2ccc(F)cc2)c(C#N)s1)c1c2c(nc3c(F)cc(N4CCN(CC(=O)N5CC(O)C5)CC4)cc13)C(O)CC2 (stereo not shown) [E1-1],21.3 nM,,
CN(c1nc(-c2ccc(F)cc2)c(C#N)s1)c1c2c(nc3c(F)cc(N4CC5(CN(CC(=O)N6CC(CO)C6)C5)C4)cc13)CCO2 [Example A29],111 nM,,
"CN(c1nc(-c2ccc(F)cc2)c(C#N)s1)c1c2c(nc3c(F)cc(N4CC5(CN(C(=O)C6CCOCC6)C5)C4)cc13)[C@@H](O)CC2 (single isomer, unassigned) [Example E14-a]",16.6 nM,,
"CN(c1nc(-c2ccc(F)cc2)c(C#N)s1)c1c2c(nc3c(F)cc(N4CC5(CN(C(=O)[C@@H]6CCOC6)C5)C4)cc13)[C@H](O)CC2 (single isomer, unassigned) [Example E13-b]",20.2 nM,,
"C[C@H]1CN(c2cc(F)c3nc4c(c(N(C)c5nc(-c6ccc(F)cc6)c(C#N)s5)c3c2)CC[C@H]4O)CCN1CC(=O)N1CC(O)C1 (single isomer, unassigned) [Example E8-b]",19.4 nM,,
C[C@H]1CN(c2cc(F)c3nc4c(c(N(C)c5nc(-c6ccc(F)cc6)c(C#N)s5)c3c2)COC4)CCN1CC(=O)N1CC(O)C1 [Example A33],44.6 nM,,
"CN(c1nc(-c2ccc(F)cc2)c(C#N)s1)c1c2c(nc3c(F)cc(N4CC5(CN(C(=O)C6CCOCC6)C5)C4)cc13)[C@H](O)CC2 (single isomer, unassigned) [Example E14-b]",14.7 nM,,
"Cc1cc(N2CC3(CN(C(=O)C(C)(C)O)C3)C2)nc2c(N(C)c3nc(-c4ccc(F)cc4)c(C#N)s3)c3c(nc12)[C@@H](O)CC3 (single isomer, unassigned) [Example E32-a]",,323 nM,331 nM
"Cc1cc(N2CC3(CN(C(=O)C(C)(C)O)C3)C2)nc2c(N(C)c3nc(-c4ccc(F)cc4)c(C#N)s3)c3c(nc12)[C@](C)(O)CC3 (single isomer, unassigned) [Example E25-a]",,372 nM,366 nM
"CN(c1nc(-c2ccc(F)cc2)c(C#N)s1)c1c2c(nc3c(F)cc(N4CC5(CN(C(=O)C(C)(C)O)C5)C4)cc13)[C@@](C)(O)CC2 (single isomer, unassigned) [Example E35-a]",,388 nM,284 nM

# Further lines, results first:
IC50 (ATX),"IC50 [1, 2]","IC50 [1, 3]",Structure (SMILES)
35.7 nM,,,CN(c1nc(-c2ccc(F)cc2)c(C#N)s1)c1c2c(nc3c(F)cc(N4CC5(CN(CC(=O)N6CCCC6)C5)C4)cc13)C(O)CC2 (stereo not shown) [Example E11]
24.5 nM,,,CN(c1nc(-c2ccc(F)cc2)c(C#N)s1)c1c2c(nc3c(F)cc(N4CC5(CN(C(=O)[C@@H]6CCOC6)C5)C4)cc13)C(=O)CC2 [Example E4]
23.5 nM,,,CN(c1nc(-c2ccc(F)cc2)c(C#N)s1)c1c2c(nc3c(F)cc(N4CC5(CN(C(=O)[C@@H]6CCOC6)C5)C4)cc13)C(O)CC2 (stereo partly shown) [Example E13]
73 nM,,,CN(c1nc(-c2ccc(F)cc2)c(C#N)s1)c1c2c(nc3c(F)cc(N4CC5(CN(C(=O)C6(O)CC6)C5)C4)cc13)COC2 [Example C22]
19.6 nM,,,CN(c1nc(-c2ccc(F)cc2)c(C#N)s1)c1c2c(nc3c(F)cc(N4CCN(CC(=O)N5CC6(CCS(=O)(=O)CC6)C5)CC4)cc13)CC2 [Example F4]
30.7 nM,,,CN(c1nc(-c2ccc(F)cc2)c(C#N)s1)c1c2c(nc3c(F)cc(N4CC5(CN(C(=O)[C@H]6CCOC6)C5)C4)cc13)C(=O)CC2 [Example E3]
,301 nM,393 nM,CN(c1nc(-c2ccc(F)cc2)c(C#N)s1)c1c2c(nc3c(F)cc(N4CC5(CN(C(=O)C(C)(C)O)C5)C4)cc13)C(C)(O)CC2 (stereo not shown) [Example E35]
,526 nM,522 nM,CN(c1nc(-c2ccc(F)cc2)c(C#N)s1)c1c2c(nc3c(F)cc(N4CC5(CN(C(=O)C(C)(C)N)C5)C4)cc13)C(O)CC2 (stereo not shown) [Example E29]
,287 nM,314 nM,CN(c1nc(-c2ccc(F)cc2)c(C#N)s1)c1c2c(nc3c(F)cc(N4CC5(CN(C(=O)CN6CC[C@@H](O)C6)C5)C4)cc13)C(O)CC2 (stereo partly shown) [Example E27]
,654 nM,737 nM,CC(C)C(=O)N1CC2(C1)CN(c1cc(F)c3nc4c(c(N(C)c5nc(-c6ccc(F)cc6)c(C#N)s5)c3c1)CCC4O)C2 (stereo not shown) [Example E43]
,494 nM,576 nM,CN(c1nc(-c2ccc(F)cc2)c(C#N)s1)c1c2c(nc3c(F)cc(N4CC5(CN(C(=O)C6CC(=O)OC67CCCC7)C5)C4)cc13)C(O)CC2 (stereo not shown) [Example E49]
,323 nM,154 nM,CC(C(=O)N1CC(O)C1)N1CCN(c2cc(F)c3nc4c(c(N(C)c5nc(-c6ccc(F)cc6)c(C#N)s5)c3c2)CCC4O)CC1 (stereo not shown) [Example E33]
,583 nM,546 nM,CN(c1nc(-c2ccc(F)cc2)c(C#N)s1)c1c2c(nc3c(F)cc(N4CC5(CN(C(=O)[C@H]6CCCN6C)C5)C4)cc13)C(O)CC2 (stereo partly shown) [Example E50]
,348 nM,850 nM,CN(c1nc(-c2ccc(F)cc2)c(C#N)s1)c1c2c(nc3c(F)cc(N4CC5(CN(C(=O)[C@@H]6CCCN6C)C5)C4)cc13)C(O)CC2 (stereo partly shown) [Example E51]
,369 nM,496 nM,CN(c1nc(-c2ccc(F)cc2)c(C#N)s1)c1c2c(nc3c(F)cc(N4CC5(CN(C(=O)C(C)(C)O)C5)C4)nc13)C(O)CC2 (stereo not shown) [Example E65]
,,336 nM,CN(c1nc(-c2ccc(F)cc2)c(C#N)s1)c1c2c(nc3c(F)cc(N4CCN(CC(=O)N5CC[C@@H](O)C5)CC4)cc13)C(O)CC2 (stereo partly shown) [Example E40]
,293 nM,296 nM,CN(c1nc(-c2ccc(F)cc2)c(C#N)s1)c1c2c(nc3c(F)cc(N4CC5(CN(CC(=O)N6CC(C)(O)C6)C5)C4)cc13)C(O)CC2 (stereo not shown) [Example E44]
,317 nM,398 nM,CN(c1nc(-c2ccc(F)cc2)c(C#N)s1)c1c2c(nc3c(F)cc(N4CC5(CN(C(=O)CO)C5)C4)cc13)C(O)CC2 (stereo not shown) [Example E39]
,583 nM,839 nM,CN(c1nc(-c2ccc(F)cc2)c(C#N)s1)c1c2c(nc3c(F)cc(N4CC5(CN(C(=O)[C@H]6CCCO6)C5)C4)cc13)C(O)CC2 (stereo partly shown) [Example E61]
,465 nM,464 nM,"CCc1nc2c(C)cc(N3CCN(CC(=O)N4CC(O)C4)CC3)cn2c1N(C)c1nc(-c2ccc(F)cc2)c(C#N)s1 [GLPG1690, reference compound]"
,462 nM,448 nM,CN(c1nc(-c2ccc(F)cc2)c(C#N)s1)c1c2c(nc3c(F)cc(N4CC5(CN(C(=O)C6CCCC6)C5)C4)cc13)C(O)CC2 (stereo not shown) [Example E60]
